From patent publication US20060157667A1, “Method and compositions for controlling release of organic compositions” (Board of Trustees of Michigan State University, priority 2005, published 2006)
“And” between values parts separate entries of the source, which are not always exact repeats. Equal values may be shown once.

Experiment: Pesticide sorption from water by K- and Ca-SWy-2 smectite clay, batch equilibration method
Format: physicochemical
Details: for change in sorption by sorbents derived from Ca-SWy-2 as fK increased from zero to 0.71: Ca-SWy-2 exchanged with KCl; for sorption by K-SWy-2 relative to sorption by Ca-SWy-2: relative aqueous concentration of 0.1; for pesticide distribution coefficient for sorption by homoionic K-SWy-2: relative concentration of 0.1 (aqueous equilibrium concentration/aqueous solubility), 0.25 M KCl solution
Description: Pesticide sorption from water solution by K— and Ca—SWy-2 mixed with different ratios of aqueous KCl to CaCl2 (kept at a fixed ionic strength of 0.25 M) were measured using a batch equilibration method. A series of initial pesticide concentrations were prepared in the following electrolyte solutions: 0.25 M KCl, 0.24 M KCl/0.003 M CaCl2; 0.20 M KCl/0.016 M CaCl2; 0.15 M KCl/0.033 M CaCl2; 0.10 M KCl/0.05 M CaCl2; 0.05 M KCl/0.067 M CaCl2; 0.01 M KCl/0.08 M CaCl2; and 0.083 M CaCl2. Clays were weighed into glass centrifuge tubes, solute solutions over a range of initial pesticide concentrations were added, and the tubes were closed with Teflon-lined screw caps. The tubes were then shaken reciprocally at 40 rpm for 24 h at room temperature (23±2° C.), followed by centrifugation at 2600 g for 30 min. Previous studies have shown that equilibrium was reached within this period of time (Sheng, G., et al., J. Agri. Food Chem. 49, 2899-2907 (2001); and Sheng, G., et al., Clays Clay Miner. 50, 25-34 (2002)). Supernatants were sampled and subject to analysis for pesticide concentrations using a Perkin-Elmer High Performance Liquid Chromatography (HPLC) system consisting of a Binary 250 LC pump, a Series 200 autosampler and a Series 200 UV-Visible detector. The optimal wavelength was set at 238 nm for dichlobenil, 250 nm for monuron and 248 nm for biphenyl. An Alltech platinum extended polar selectivity C18 column (15 cm by 4.6 mm i.d.) was used for dichlobenil and monuron, and an Alltech adsobosphere C18 column (25 cm by 4.6 mm i.d.) was used for biphenyl. The mobile phase composition was a mixture of methanol and water, and was optimized for each pesticide. Controls consisted of identical pesticide solutions in the corresponding electrolytes, but with no clay present. No changes in solute concentrations were detected in the tubes devoid of clay within the experimental period; therefore, solute mass lost in the supernatant from clay slurries was assumed to be sorbed by clay. The amount of pesticide sorbed was calculated from the difference between the initial and equilibrium solute concentration in aqueous solution.
The actual population of exchangeable K^+ and Ca^2+ associated with the clay was measured in a separate experiment using the BaCl2 extraction method (Rhoades, J. D., Method of Soil Analysis part 2: Chemical and Microbiological Properties; 2nd ed., American Society of Agronomy: Madison, Wis. 149-158 (1982)). The same amounts of clays and electrolyte solutions used in the sorption studies were added into glass centrifuge tubes, the tubes were shaken for 24 h at room temperature then centrifuged at 2600 g for 30 min. Aqueous supernatants were removed, diluted and analyzed by a Perkin-Elmer 3110 atomic absorption spectrophotometer (AAS). The mass of K^+ and Ca^2+ remaining in the residual supernatant was accounted for by assuming their concentrations to be the same as that measured in the bulk supernatant; residual supernatant that could not be removed was determined gravimetrically. The clay pellets were extracted three times using 0.1 M BaCl2, then washed three times with Milli-Q water. The supernatants from the water washing were combined with the supernatants from the BaCl2 extraction step, diluted and analyzed by AAS. The K^+ and Ca^2+ concentrations were measured using the external standards prepared with the matching matrix background of extraction reagents.
We compared sorption coefficients for clays derived from homoionic Ca—SWy-2 vs. those derived from homoionic K—SWy-2 after the homoionic clays had been treated with different amounts of CaCl2/KCl aqueous solutions. […] Replacement of K^+ from K—SWy-2 by Ca^2+ (from fK=1 to 0.66) manifested gradually diminishing sorption of dichlobenil to ˜40% of that by homoionic K—SWy-2.

[1] = relative aqueous concentration 0.1

N#Cc1c(Cl)cccc1Cl [Dichlobenil, 2,6-dichlorobenzonitrile]
change in sorption by sorbents derived from Ca-SWy-2 as fK increased from zero to 0.71 [1]: increased by approximately four times
sorption relative to that by homoionic K-SWy-2 after replacement of K+ by Ca2+ (K-SWy-2 derived clay, fK from 1 to 0.66, relative concentration 0.1): ~40%
sorption by clay derived from K-SWy-2 (fK=0.66) relative to clay derived from Ca-SWy-2 (fK=0.71) (comparable fK, different starting clay): ~10 times and 8 times
sorption by K-SWy-2 relative to sorption by Ca-SWy-2: approximately 75 times higher
pesticide distribution coefficient for sorption by homoionic K-SWy-2: 580 L/kg

c1ccc(-c2ccccc2)cc1 [Biphenyl, 1,1′-biphenyl]
sorption across variation of K+ fractions on minerals from zero to one (relative concentration 0.1, FIG. 4): remained nearly constant
pesticide distribution coefficient for sorption by homoionic K-SWy-2: 6.4 L/kg

CN(C)C(=O)Nc1ccc(Cl)cc1 [Monuron, N′-(4-chlorophenyl)-N,N-dimethylurea]
sorption enhancement by Ca-SWy-2 derived sorbents at fK as high as 0.71 (Ca2+ replaced by K+, sorption isotherms, FIG. 2): ca. 205
change in sorption by sorbents derived from Ca-SWy-2 as fK increased from zero to 0.71 [1]: No apparent enhancement
change in sorption when K-SWy-2 underwent exchange with CaCl2, fK from 1 to 0.81 [1]: reduced by about half
sorption by K-SWy-2 relative to sorption by Ca-SWy-2: ~4 times higher
pesticide distribution coefficient for sorption by homoionic K-SWy-2: 27 L/kg
